In paper PMC8878317, “Chemogenomics identifies acetyl-coenzyme A synthetase as a target for malaria treatment and prevention” (Cell Chemical Biology, 2022):

Key:
PfAcAS T648M = molecular target: T1, PfAcAS T648M (Plasmodium falciparum, UniProt C6KTB4, T648M); assay: EnzChek assay, recombinant PfAcAS T648M; type: biochemical, P. falciparum; settings: substrate varied, other two saturating
T1 sequence (C6KTB4 1-997 T648M): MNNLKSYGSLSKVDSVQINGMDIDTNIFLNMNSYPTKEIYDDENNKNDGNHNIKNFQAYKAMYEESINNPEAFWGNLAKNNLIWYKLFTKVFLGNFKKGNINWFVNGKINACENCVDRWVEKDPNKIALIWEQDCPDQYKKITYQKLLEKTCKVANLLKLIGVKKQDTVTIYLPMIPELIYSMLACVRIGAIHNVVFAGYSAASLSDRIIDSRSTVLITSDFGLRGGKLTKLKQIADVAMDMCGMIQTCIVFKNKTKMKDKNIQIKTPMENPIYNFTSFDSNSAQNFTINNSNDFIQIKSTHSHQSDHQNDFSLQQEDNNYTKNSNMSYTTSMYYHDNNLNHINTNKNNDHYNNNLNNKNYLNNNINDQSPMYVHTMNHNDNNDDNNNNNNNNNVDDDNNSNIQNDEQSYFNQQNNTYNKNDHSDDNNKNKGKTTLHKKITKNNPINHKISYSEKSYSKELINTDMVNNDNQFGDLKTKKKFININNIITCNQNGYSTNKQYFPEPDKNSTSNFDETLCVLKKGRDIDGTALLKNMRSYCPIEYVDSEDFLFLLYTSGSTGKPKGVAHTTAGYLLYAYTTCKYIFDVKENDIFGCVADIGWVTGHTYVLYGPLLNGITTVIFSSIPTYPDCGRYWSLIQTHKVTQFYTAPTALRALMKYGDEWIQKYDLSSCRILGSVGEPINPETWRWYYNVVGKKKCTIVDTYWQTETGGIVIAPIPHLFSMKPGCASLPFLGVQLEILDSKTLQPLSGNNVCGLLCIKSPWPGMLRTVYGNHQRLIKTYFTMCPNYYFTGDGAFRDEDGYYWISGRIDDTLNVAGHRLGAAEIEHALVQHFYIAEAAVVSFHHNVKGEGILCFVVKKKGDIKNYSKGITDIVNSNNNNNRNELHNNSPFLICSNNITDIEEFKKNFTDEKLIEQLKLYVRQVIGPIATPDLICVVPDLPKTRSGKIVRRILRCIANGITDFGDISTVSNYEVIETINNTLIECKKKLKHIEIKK
Experimental: (§1) Steady-state kinetic measurements were conducted at room temperature using a PheraStar plate reader (BMG). The first step of the reaction of PfAcAS, which produces inorganic pyrophosphate (PPi) that is converted to two molecules of inorganic phosphate using a pyrophosphatase enzyme, was continuously monitored using the EnzChek Phosphate Assay Kit, which gives an absorbance readout at 360 nm (Figure 4A) ([Webb, 1992]). […] By adding CoA, the reaction rapidly proceeds to the second step resulting in further release of pyrophosphate, making the EnzChek assay a suitable option to continuously monitor the activity of PfAcAS. Typical kinetic assays were carried out in clear, flat-bottom, polystyrene, 384-well plates (Greiner) in an 80 μL reaction volume containing 100 mM HEPES (pH7.4), 100 mM NaCl, 250 mM KCl, 50 mM MgCl2, 1 mM DTT, 0.004% Tween 20, 0.5 U/mL pyrophosphatase, 0.1 mM MESG, 0.5 U/mL PNP, 2 mM ATP, 2 mM acetate, 0.5 mM CoA and 5 nM recombinant PfAcAS WT or 10 nM recombinant PfAcAS A597V or T648M. Assays were performed by adding 40 μL of a 2-times concentrated substrate mixture including MESG to all wells, and the reactions started by adding 40 μL of a 2-times concentrated reaction mixture containing all other components. The reactions were carried out for 2 to 4 hr with absorbance readings at 360 nm every two to four minutes. Reaction rates were extracted from the linear phase of activity, usually using 10 to 20 points between times of 30 and 100 min of the reactions. Using a phosphate standard curve obtained under the same buffer conditions used for the PfAcAS reactions (Figure S5A), the rates were then converted to velocity per second, conversion of one nanomolar of phosphate, per nanomolar of enzyme, per second. The substrates Km values were determined by varying the concentration of one of the substrates at saturating concentration of the other two substrates. Steady-state data were fitted using the nonlinear, least-squares, curve-fitting programs of Sigma-Plot for Windows, version 14.0. Individual saturation curves were fit to Equation 1(Equation 1) v=VS/K+S where V is the maximal velocity, S is the substrate concentration and K is the Michaelis constant for the substrate (Km). Individual saturation curves displaying substrate inhibition were fit to Equation 2(Equation 2) v=VS/K+S×(1+S/Ks) where Ks is the substrate inhibition constant.
(§2) To determine the steady-state inhibition parameters and patterns associated with both inhibitors, PfAcAS activity was studied in the presence of variable concentrations of one substrate, ATP, acetate or CoA, fixed saturating concentration of the other two substrates (acetate and CoA, ATP and CoA, or ATP and acetate) and several fixed concentrations of inhibitor. Assay ready plates containing different concentrations of inhibitor were prepared using an Echo 550 acoustic dispenser (Labcyte Inc.). The assays were carried out as described in the previous section. […] For better comparison between both inhibitors and proteins, the ymin was fixed to zero and the ymax to 100. Inhibition data showing linear, competitive patterns in double-reciprocal plots were fit to Equation 4(Equation 4) v=VS/K(1+I/Ki)+S where Ki is the dissociation constant for the enzyme-inhibitor complex. Inhibition data showing linear, mixed inhibition patterns in double-reciprocal plots were fit to Equation 5(Equation 5) v=VS/K(1+I/Kis)+S(1+I/Kii) where Kis is the dissociation constant for the free enzyme-inhibitor complex and Kii is the dissociation constant for the enzyme-substrate-inhibitor complex. Inhibition data showing linear, uncompetitive patterns in double-reciprocal plots were fit to Equation 6(Equation 6) v=VS/K+S(1+I/Ki)

HsAcAS WT = molecular target: T2, HsAcAS WT (Homo sapiens, UniProt Q9NR19); assay: HsAcAS Rapid-Fire QQQ mass spectrometry assay; type: biochemical
T2 construct: made in house; host or cells: Expi293 cells (pCDNA 3.1, transient transfection)
Experimental: The human form of acetyl-CoA synthetase was assayed in 100 mM HEPES (pH7.4), 100 mM NaCl, 250 mM KCl, 50 mM MgCl2, 1 mM DTT, 0.005% NP40, 400 μM ATP, 70 μM acetate, 40 μM CoA and 2 nM recombinant HsAcAS. Assay ready plates containing different concentrations of inhibitor were prepared using an Echo 550 acoustic dispenser (Labcyte Inc.), dispensing 150 nL of compound per well. Assays were conducted in a total volume of 15 μL for 30 min at room temperature before being quenched with the addition of 85 μL 1% formic acid containing 0.5 μg/mL n-Propionyl coenzyme A (Sigma P5397) as an internal standard. Reaction products were detected using a RapidFire 365 system (Agilent, Santa Clara, CA) coupled with a triple quadrupole mass spectrometer 6740 (Agilent).
The sipper was washed to minimize carryover with 0.1% TFA in deionized water followed by 0.1% TFA in acetonitrile/deionized water (95%/5%, v/v). The sipper was washed to minimize carryover with deionized water followed by acetonitrile. Aspiration time, load/wash time, elution time, and re-equilibration time were set to 600, 3000, 5000, and 500 ms, respectively, with a cycle time of approximately 10 s. The triple-quadrupole mass spectrometer with electrospray ion source was operated in positive multiple reaction monitoring (MRM) mode. The detailed setting for the mass spectrometer parameters was as follows: capillary voltage, 3000 V; gas temperature, 350°C; gas flow, 7 L/min; nebulizer, 40 psi; sheath gas temperature, 300°C′ sheath gas flow, 11 L/min; and nozzle voltage, 1500 V. The MRM transitions for acetyl-CoA as a reaction product were set as 810.1/303.1 & 810.1/428.1 (quantifier & qualifier with dwell time of 50 ms, 100V fragmentor, and collision energies of 30 & 28 eV respectively) and for n-propionyl-CoA as an internal standard as 824.2/317.2 & 824.2/428.0 (quantifier & qualifier with dwell time of 50 ms, 100V fragmentor, and collision energies of 32 & 26 eV respectively). The mass resolution window for both parental and daughter ions was set at as a unit (0.7 Da). Peak areas were integrated, and area ratios of acetyl-CoA to the internal standard (n-propionyl CoA) were used for quantitation. Data were converted to % inhibition relative to the uninhibited enzyme control and fitted to Equation 3.

PfAcAS WT = PfAcAS WT (Plasmodium falciparum, UniProt C6KTB4); assay: EnzChek assay, recombinant PfAcAS WT (steady-state kinetics and IC50); type: biochemical, P. falciparum
Experimental: as §1, §2

PfAcAS A597V = molecular target: T3, PfAcAS A597V (Plasmodium falciparum, UniProt C6KTB4, A597V); assay: EnzChek assay, recombinant PfAcAS A597V; type: biochemical, P. falciparum; settings: substrate varied, other two saturating
T3 sequence (C6KTB4 1-997 A597V): T1 sequence (C6KTB4 1-997 T648M)
Experimental: as §1, §2

[1] = test system: P. falciparum Dd2:T648M (CRISPR edited PfAcAS); assay: Blood-stage dose-response assay, CRISPR-edited Dd2:T648M line; type: cell-based; settings: Plasmodium falciparum, mean ± SD, n bioreplicates
Experimental: (§3) For in vitro–selected lines, drug susceptibility was measured by SYBR Green I–based assay ([Johnson et al., 2007]; [Smilkstein et al., 2004]). Ring-stage parasites were cultured for 72 hr at 1% hematocrit and 1% starting parasitemia in 384-well black clear-bottom plates containing test compounds plated in triplicate in 12-point serial dilutions. Lysis buffer (0.16% w/v saponin, 1.6% Triton X-100, 5 mM EDTA, and 20 mM Tris-HCl, pH 7.4) with SYBR Green I fluorescent dye (Invitrogen) was added, and fluorescence readings were taken (excitation at 494 nm, emission at 530 nm). Alternatively, Dd2-B2 ring-stage cultures at 0.3% parasitemia and 1% hematocrit were exposed for 72 hr to a range of ten drug concentrations that were 2-fold serially diluted in duplicates along with drug-free controls. Parasite survival was assessed by flow cytometry on an Accuri C6 (BD Biosciences) using SYBR Green and MitoTracker Deep Red FM (Life Technologies) as nucleic acid stain and vital dyes respectively. EC50 values were calculated using a nonlinear regression curve fit in Prism Software version 8 (GraphPad).
(§4) Mutant PfAcAS-A597V and PfAcAS-T648M parasites were generated using CRISPR/Cas9. The guide RNAs for PfAcAS-A597V (5′-[…]-3′; 5′-[…]-3′) and for PfAcAS-T648M (5′-[…]-3′) were designed using Benchling (https://benchling.com/) to targeting sites in PfAcAS that were 6-14 bp upstream of the A597 codon and 6 bp downstream of the T648 codon respectively. Complementary oligos encoding the gRNA sequences (5′- tatt[…]-3’ / 5’-aaac[…]-3’; 5’-tatt[…]-3’ / 5’-aaac[…]-3’ and 5’- tattg[…]-3’ / 5’-aaac[…]c-3’ ) were phosphorylated using T4 polynucleotide kinase and annealed (95°C for 5 min, then step down of 5°C/min to 25°C) prior to ligation into the BbsI-digested pDC2-coCas9-U6.2-hDHFR plasmid ([Lim et al., 2016]). The donor template for PfAcAS-A597V was synthesized (ThermoFisher) as a 700 bp Genestring fragment spanning position 1468 to 2168 of the PfAcAS gene, and the donor for PfAcAS-T648M synthesized as a 829 bp fragment spanning position 1468 to 2297 and inserted into the AatII/EcoRI sites of the pDC2-coCas9-gRNA-hDHFR plasmid by Gibson assembly. Ring-stage parasites (Dd2) at 5% parasitemia were transfected by electroporation (BioRad Gene Pulser II at 0.310 kV and 950 μF) with 50 μg of each plasmid (plasmid 1: pDC2-coCas9-AcAS-A597V-gRNA1-hDHFR, plasmid 2: pDC2-coCas9-gRNA2-hDHFR, or plasmid 3: pDC2-coCas9-AcAS-T648M-gRNA1-hDHFR), and parasites selected for 10 days with 2.5 nM WR99210 (Jacobus Pharmaceuticals), followed by removal of drug pressure. After confirmation of editing in the bulk culture, clones were isolated by serial limiting dilution and confirmed by Sanger sequencing after PCR amplification from genomic DNA using forward primer 5′-[…]-3′ and reverse primer 5′-[…]-3′ (for A597V) and 5′-[…]-3′ (for T648M).

P. falciparum Dd2-B2 = assay: Blood-stage dose-response assay (72 hr), Dd2 / Dd2-B2 parent; type: cell-based; settings: Plasmodium falciparum, DD2, read-out: Dd2-B2 parent EC50 ± SD (nM)
Experimental: (§5) The 3D7-A10 clone has been used in previous in vitro drug selection and sequencing efforts ([Cowell et al., 2018]). Dd2 parasites were obtained from T. Wellems (NIAID, NIH). Dd2-B2 is a genetically homogeneous line that was cloned from Dd2 by limiting dilution in the Fidock lab. Parasite strains were cultured in 3-5% human O+ hematocrit in RPMI 1640 (Life Technologies) supplemented with 28 mM NaHCO3, 25 mM HEPES, and hypoxanthine ([…]). Depending on the parasite line, the media either contained gentamycin (25 μg/mL), or no antibiotic and was additionally supplemented with 0.5% AlbuMAX II (Life Technologies) and/or O+ human serum (heat inactivated and pooled). Blood and serum products were obtained from Interstate Blood Bank. Cultures were maintained at 37°C in 1.1% O2, 4% CO2, and 95% N2. Parasite populations were synchronized by 5% sorbitol treatment ([Lambros and Vanderberg, 1979]).
as §3

P. falciparum 3D7-A10 = assay: Blood-stage dose-response assay (SYBR Green I, 72 hr), 3D7 / 3D7-A10 parent; type: cell-based; settings: Plasmodium falciparum, mean ± SD, n bioreplicates, read-out: 3D7-A10 parent EC50 ± SD
Experimental: as §5, §3

[2] = test system: P. falciparum Dd2:A597V (CRISPR edited PfAcAS); assay: Blood-stage dose-response assay, CRISPR-edited Dd2:A597V line; type: cell-based; settings: Plasmodium falciparum, mean ± SD, n bioreplicates
Experimental: as §3, §4

T2 sequence (Q9NR19 whole entry): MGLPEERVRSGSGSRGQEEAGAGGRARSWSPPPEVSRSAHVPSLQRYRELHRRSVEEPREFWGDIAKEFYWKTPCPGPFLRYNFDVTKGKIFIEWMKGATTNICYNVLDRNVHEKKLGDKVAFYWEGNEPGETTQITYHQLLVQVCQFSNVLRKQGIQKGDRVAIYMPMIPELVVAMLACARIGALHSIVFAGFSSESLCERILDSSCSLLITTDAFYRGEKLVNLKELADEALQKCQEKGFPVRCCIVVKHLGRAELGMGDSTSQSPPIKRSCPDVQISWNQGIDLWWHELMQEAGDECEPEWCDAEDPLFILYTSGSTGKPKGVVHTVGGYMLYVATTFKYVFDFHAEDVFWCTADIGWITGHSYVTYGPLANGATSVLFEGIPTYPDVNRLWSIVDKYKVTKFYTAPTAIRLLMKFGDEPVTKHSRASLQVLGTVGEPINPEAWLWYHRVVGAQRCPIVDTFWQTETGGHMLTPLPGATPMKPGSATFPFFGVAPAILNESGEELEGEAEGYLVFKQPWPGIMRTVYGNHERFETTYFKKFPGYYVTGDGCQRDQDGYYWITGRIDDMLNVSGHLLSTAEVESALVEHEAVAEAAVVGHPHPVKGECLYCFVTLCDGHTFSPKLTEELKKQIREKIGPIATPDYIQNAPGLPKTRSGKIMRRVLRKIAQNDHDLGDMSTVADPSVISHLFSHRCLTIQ

| Structure (SMILES) | Km (PfAcAS T648M) | Km (HsAcAS WT; read-out: Km (µM), HsWT) | Ki (µM), substrate inhibition, HsWT (HsAcAS WT; substrate inhibition constant) | Ki (µM), substrate inhibition, PfAcAS WT (PfAcAS WT; substrate inhibition constant) | Km (PfAcAS WT; substrate varied, other two saturating) | Km (PfAcAS A597V) | Vmax (s-1), PfAcAS A597V (PfAcAS A597V) | EC50 [1] | EC50 (P. falciparum Dd2-B2) | EC50 (P. falciparum 3D7-A10) | EC50 [2] |
| --- | --- | --- | --- | --- | --- | --- | --- | --- | --- | --- | --- |
| CC(C)(COP(=O)(O)OP(=O)(O)OC[C@H]1O[C@@H](n2cnc3c(N)ncnc32)[C@H](O)[C@@H]1OP(=O)(O)O)[C@@H](O)C(=O)NCCC(=O)NCCS [CoA] | 82 ± 6 µM | 36 ± 5 µM | 1000 ± 190 µM | 2700 ± 310 µM | 42 µM | 61 ± 6 µM | 0.84 ± 0.05 s⁻¹ | – | – | – | – |
| CCN(CC)Cc1cc(Nc2ccnc3cc(Cl)ccc23)ccc1O [Amodiaquine] | – | – | – | – | – | – | – | 0.02 ± 0.0086 µM | 19 ± 6 nM | 0.0074 ± 0.0018 µM | 0.021 ± 0.0025 µM |
